# Assay results reported in patent publication US12415830B2, “Steroid compound, and use thereof and preparation method therefor” (Chengdu Kanghong Pharmaceutical Co Ltd, priority 2019, dated 2025).
# Like-named read-outs stand apart in the source and are kept apart here.
# Assays:
# GABAA1 (α1β2γ2) receptor = biological target: T1, GABAA1 (α1β2γ2) receptor (Homo sapiens, UniProt P14867+P47870); test: Patch-clamp electrophysiology on recombinant GABAA1 receptor in HEK293 cells, with 3 μM GABA; assay type: cell-based; settings: for Emax at 0.1 µM: 0.1 μM compound together with 3 μmol GABA; for Emax at 0.1 µM / Emax at 1 µM: read-out: potency: ratio of the peak current on the GABAA1 receptor to the peak current in 100 μmol GABA; for Emax at 1 µM: 1 μM compound together with 3 μmol GABA
# T1 construct: expressed in transfected cells
# Experimental: (§1) The present invention applies the two subunits of the recombinant GABAA receptor: α1β2γ2 and α4β3δ to evaluate the potency of the exemplary compounds in vitro by patch-clamp electrophysiology.
# (§2) Extracellular fluid: 140 mM NaCl, 5 mM CsCl, 2 mM CaCl2·2H2O, 1 mM MgCl2·6H2O, 5 mM HEPES, 10 mM D-Glucose, pH=7.4 (NaOH).
# (§3) Intracellular fluid: 130 mM CsCl, 0.1 mM CaCl2·H2O, 2 mM MgCl2·6H2O, 1.1 mM EGTA, 5 mM Na2-ATP, 10 mM HEPES, pH=7.2 (CsOH).
# The HEK293 cells line stably expressing GABAA (α1β2γ2) receptors was cultured in Dulbecco's Modified Eagle Medium (DMEM) supplemented with 10% fetal bovine serum, 800 μg/mL G418, 200 μg/mL Hygromycin B and 100 μg/mL Zeocin. Cells were grown in a humidified incubator at 37° C. with 5% carbon dioxide.
# Before manual patch clamp test, the cells were detached using 0.25%-Trypsin-EDTA solution. Then 8×10^3 cells were plated onto coverslips, and cultured in a 24-well plate (final medium volume: 500 μL) and tested after 18 hours by patch clamp.
# (§4) Glass pipette (BF 150-86-10, Sutter Instruments) was pulled using a micropipette puller (P97, Sutter Instruments). The glass pipette was manipulated using a micro-manipulator (MP285, Sutter Instruments) under the microscope (IX71, Olympus). After touching the cell, a slight suction was applied to achieve high seal resistance (GQ). Fast capacitance (in pF) compensation was made after achieving high seal, and the membrane was broken. Cell capacitance (in pF) compensation was made from whole-cell capacitance compensation after the whole cell mode was achieved. No leak subtraction was made.
# (§5) The test and control solutions flowed into a recording chamber mounted on the stage of an inverted microscope via a gravity-fed solution delivery system. During the experiment, solutions were withdrawn from the recording chamber by vacuum aspiration. Each concentration was tested at multiple times. All tests were performed at room temperature.
# (§6) Whole cell model recorded GABAA1 receptors current experimental protocol was indicated as follows: When sealing, cell was at a holding potential of −70 mV, with gap-free mode to record the peak current. The cell would be applied with 3 μM GABA to active current. After the test articles application for 30 s, each concentration of test articles was applied with 3 μM GABA followed by 2 minutes washout using extracellular solution. Finally, 100 μM GABA was used as a positive control. The data were collected by EPC-10 amplifier and stored in PatchMaster (HEKA) software.
# (§7) The following criteria are used to determine whether the data is acceptable: • (1) Electrode resistance <5MΩ • (2) Seal resistance >1GΩ • (3) The start of access resistance <15 MΩ • (4) The end of access resistance <15 MΩ • (5) No obvious spontaneous current decay. • (6) No obvious current leakage when the membrane potential is-70 mv. 56.6 Data Analysis
# In the detection of GABAA1, the currents of 3 μM GABA and different concentrations of test compounds were respectively normalized to the current of 100 μM GABA
# [formula] and then the activation rate corresponding to each concentration was calculated.
# [formula] and then the activation rate corresponding to each concentration was calculated. Means, Standard Deviation and Standard Error were calculated for each test group. EC50 value was calculated using nonlinear regression: Y=Bottom+(Top−Bottom)/(1+10^((Log EC50−X)×HillSlope))
# To fit data to the concentration-response, EC50 was the concentration giving a half-maximum effect and Hillslope was the Hill coefficient. Curve-fitting and EC50 calculations were performed using Graphpad5.0 software.
# Emax is defined as the ratio of the peak current generated on the GABAA1 receptor to the peak current generated only in 100 μmol of GABA and the ratio is multiplied by 100%. The peak current generated on the GABAA1 receptor is that the exemplary compounds act on the GABAA1 receptor together with 3 μmol GABA.
# GABAA4 (α4β3δ) receptor = biological target: T2, GABAA4 (α4β3δ) receptor (Homo sapiens, UniProt P28472+P48169); test: Patch-clamp electrophysiology, compound alone or with 10 nM GABA (Table 3); assay type: cell-based; settings: for Emax: relative to peak current in GABA only
# T2 construct: expressed in transfected cells; host or cells: HEK293 (transient transfection, plasmids 1:1:1)
# Experimental: as §1, §2, §3
# HEK293 cell line was cultured in DMEM containing 10% fetal bovine serum and 5% carbon dioxide at 37° C.
# Cell passage: The old medium was removed, and the cells were washed once with PBS. Then 1 mL 0.25%-Trypsin-EDTA solution was added to digest cells. The culture dish was incubated at 37° C. in pre-warmed incubator for 0.5 minutes. As soon as cells were detached, about 5 mL 37° C. pre-warmed complete medium was added. Cell aggregates were dissociated by gentle pipetting. The cell suspension was transferred into a sterile centrifuge tube and then the cell suspension was be spun at approximately 1000 rpm for 5 minutes. The cells were amplified or maintained by seeding 2.5×10^5 cells in a 6 cm dish (final medium volume: 5 mL). For transfection, 8×10^3 cells were plated onto coverslips, and cultured in a 24-well plate (final medium volume: […]).
# Transfection: Second day, the transfection of GABAA4 (α4, β3, δ plasmid ratio 1:1:1) was performed. The X-tremeGENE HP DAN Transfection Reagents kit were used. The ratio of the plasmid and transfection reagent was 1 μg: 2 μL. The amount of plasmid in the 24-well plate was 0.5 μg per well, and the transfection reagent was 1 μL. The following specific steps were taken for preparing the 12 wells: The 600 μL Opti-MEM was added to a sterile centrifuge tube along with 6 μg of plasmid and was allowed to mix well; Then, the 12 μL of transfection reagent was added, mixed well following 15 min incubation at room temperature. The transfection complex was then inoculated into the cell, 50 μL per well, and the transfection complex was lightly stirred and mixed.
# This mixture was changed on the third day, and the patch-clamp was performed on the fourth day.
# as §4, §5
# as §6, with “GABAA4” for “GABAA1”, “10 nM” for “3 μM”, “10” for “100”
# as §7, with “56.6 Data Analysis” left out
# [1] = with 10 nM GABA, read-out: Emax (with 10 nM GABA)
# [2] = without GABA, read-out: Emax (without GABA)
# [3] = with 10 nM GABA, read-out: EC50 (with 10 nM GABA)
# [4] = without GABA, read-out: EC50 (without GABA)
# T1 sequence (P14867 28-456): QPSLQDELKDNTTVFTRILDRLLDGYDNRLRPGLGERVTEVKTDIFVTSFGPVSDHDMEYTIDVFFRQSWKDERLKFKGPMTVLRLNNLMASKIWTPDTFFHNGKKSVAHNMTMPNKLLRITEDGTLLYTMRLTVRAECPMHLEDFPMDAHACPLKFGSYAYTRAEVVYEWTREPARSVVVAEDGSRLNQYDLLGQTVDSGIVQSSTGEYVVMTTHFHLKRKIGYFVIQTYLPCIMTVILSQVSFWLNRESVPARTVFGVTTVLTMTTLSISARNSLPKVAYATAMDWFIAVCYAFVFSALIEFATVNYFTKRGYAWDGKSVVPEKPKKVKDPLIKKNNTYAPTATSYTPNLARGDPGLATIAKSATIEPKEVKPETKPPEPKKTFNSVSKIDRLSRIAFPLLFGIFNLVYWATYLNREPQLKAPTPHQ
# T1 sequence (P47870 26-512): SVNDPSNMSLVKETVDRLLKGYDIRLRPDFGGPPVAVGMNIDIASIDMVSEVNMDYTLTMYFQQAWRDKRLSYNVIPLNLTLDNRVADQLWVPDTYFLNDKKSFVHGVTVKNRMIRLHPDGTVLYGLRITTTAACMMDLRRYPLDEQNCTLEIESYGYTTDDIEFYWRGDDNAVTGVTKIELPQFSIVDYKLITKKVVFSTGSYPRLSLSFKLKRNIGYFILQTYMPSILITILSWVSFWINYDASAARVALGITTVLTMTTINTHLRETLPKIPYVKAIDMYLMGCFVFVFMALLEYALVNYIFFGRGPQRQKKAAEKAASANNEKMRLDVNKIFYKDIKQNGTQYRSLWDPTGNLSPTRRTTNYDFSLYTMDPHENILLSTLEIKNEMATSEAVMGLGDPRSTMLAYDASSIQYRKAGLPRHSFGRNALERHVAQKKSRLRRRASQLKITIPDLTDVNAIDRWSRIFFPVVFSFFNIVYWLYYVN
# T1 sequence (P18507 40-475 partner): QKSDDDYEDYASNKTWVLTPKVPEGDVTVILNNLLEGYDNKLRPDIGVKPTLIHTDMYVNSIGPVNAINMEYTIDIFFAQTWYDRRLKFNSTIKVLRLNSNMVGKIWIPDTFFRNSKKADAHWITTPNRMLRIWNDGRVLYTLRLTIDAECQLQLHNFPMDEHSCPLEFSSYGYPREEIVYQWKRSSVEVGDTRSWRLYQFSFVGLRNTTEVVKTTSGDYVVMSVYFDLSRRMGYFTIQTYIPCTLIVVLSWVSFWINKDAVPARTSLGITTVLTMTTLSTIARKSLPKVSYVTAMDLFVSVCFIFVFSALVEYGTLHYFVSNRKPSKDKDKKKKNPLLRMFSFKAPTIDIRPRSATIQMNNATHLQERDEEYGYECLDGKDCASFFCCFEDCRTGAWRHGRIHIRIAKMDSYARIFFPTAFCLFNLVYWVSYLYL
# T2 sequence (P48169 36-554): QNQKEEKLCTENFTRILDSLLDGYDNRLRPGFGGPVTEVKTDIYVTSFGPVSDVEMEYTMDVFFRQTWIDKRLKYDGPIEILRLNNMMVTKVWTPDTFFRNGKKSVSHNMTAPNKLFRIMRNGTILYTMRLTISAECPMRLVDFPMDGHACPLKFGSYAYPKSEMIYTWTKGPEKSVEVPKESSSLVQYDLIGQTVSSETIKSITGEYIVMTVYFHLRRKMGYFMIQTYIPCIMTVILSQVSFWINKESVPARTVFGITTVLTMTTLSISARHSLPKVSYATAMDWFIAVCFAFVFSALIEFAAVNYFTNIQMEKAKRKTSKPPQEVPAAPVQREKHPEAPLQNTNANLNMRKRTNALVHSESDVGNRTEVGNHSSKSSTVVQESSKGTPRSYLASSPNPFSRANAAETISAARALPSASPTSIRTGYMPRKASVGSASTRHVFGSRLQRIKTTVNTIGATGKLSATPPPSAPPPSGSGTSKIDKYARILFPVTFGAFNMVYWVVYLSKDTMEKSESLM
# T2 sequence (P28472 26-473): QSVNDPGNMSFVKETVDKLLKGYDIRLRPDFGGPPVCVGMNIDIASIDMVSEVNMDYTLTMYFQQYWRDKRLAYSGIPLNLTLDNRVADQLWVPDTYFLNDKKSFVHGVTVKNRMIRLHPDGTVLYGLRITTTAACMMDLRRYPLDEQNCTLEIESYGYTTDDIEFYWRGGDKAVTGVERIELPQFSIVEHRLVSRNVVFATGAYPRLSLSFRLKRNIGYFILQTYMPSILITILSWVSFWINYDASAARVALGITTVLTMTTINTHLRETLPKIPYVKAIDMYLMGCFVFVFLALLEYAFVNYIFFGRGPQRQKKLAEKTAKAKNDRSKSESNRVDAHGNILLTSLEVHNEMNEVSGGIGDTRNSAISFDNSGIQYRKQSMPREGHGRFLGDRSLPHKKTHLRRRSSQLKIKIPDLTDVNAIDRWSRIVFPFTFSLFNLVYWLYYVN
# T2 sequence (O14764 25-452 partner): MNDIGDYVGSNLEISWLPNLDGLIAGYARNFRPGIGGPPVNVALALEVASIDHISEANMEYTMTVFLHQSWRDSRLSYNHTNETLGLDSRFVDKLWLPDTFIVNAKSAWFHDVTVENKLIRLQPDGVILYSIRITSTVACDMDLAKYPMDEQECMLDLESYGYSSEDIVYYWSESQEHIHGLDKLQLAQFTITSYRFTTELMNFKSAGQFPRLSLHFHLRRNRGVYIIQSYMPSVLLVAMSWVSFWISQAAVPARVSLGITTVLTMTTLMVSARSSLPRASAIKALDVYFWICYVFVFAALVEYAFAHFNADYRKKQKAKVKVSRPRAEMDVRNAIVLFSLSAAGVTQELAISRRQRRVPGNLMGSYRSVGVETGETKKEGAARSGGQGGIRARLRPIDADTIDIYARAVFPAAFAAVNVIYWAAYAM
Compound,Emax at 0.1 µM (GABAA1 (α1β2γ2) receptor; HEK293),Emax at 1 µM (GABAA1 (α1β2γ2) receptor; HEK293),"EC50 (GABAA4 (α4β3δ) receptor; EC50 (with 10 nM GABA), with 10 nM GABA)","EC50 (GABAA4 (α4β3δ) receptor; EC50 (without GABA), without GABA)",Emax (GABAA4 (α4β3δ) receptor; [1]),Emax (GABAA4 (α4β3δ) receptor; [2]),"Emax (GABAA1 (α1β2γ2) receptor; HEK293, together with 3 μmol GABA, relative to peak current in 100 μmol GABA)",EC50 (GABAA1 (α1β2γ2) receptor; together with 3 μmol GABA),EC50 (GABAA4 (α4β3δ) receptor; [3]),EC50 (GABAA4 (α4β3δ) receptor; [4])
CC(=O)C1CCCC2[C@@H]3CC[C@H]4C[C@H](O)CC[C@]4(C)[C@H]3CC[C@]12C (stereo partly drawn) [KH001],20 to 40%,60 to 80%,132 nM,173 nM,91.7%,103%,,,,
C[C@@]1(O)CC[C@@]2(C)[C@@H](CC[C@@H]3[C@@H]2CC[C@]2(C)[C@@H](C(=O)COc4noc5ccccc45)CCC[C@@H]32)C1 [KH025],0 to 20%,60 to 80%,,,92.5%,84.6%,93.7%,620 nM,572 nM,947 nM
C[C@@]1(O)CC[C@@]2(C)[C@@H](CC[C@@H]3[C@@H]2CC[C@]2(C)[C@@H](C(=O)Cn4nnc(-c5ccccc5)n4)CCC[C@@H]32)C1 [KH039],0 to 20%,60 to 80%,,,125%,121%,,,> 4000 nM,> 4000 nM
C[C@@]1(O)CC[C@@]2(C)[C@@H](CC[C@@H]3[C@@H]2CC[C@]2(C)[C@@H](C(=O)Cn4nccn4)CCC[C@@H]32)C1 [KH043],0 to 20%,20 to 40%,,,,,,,,
Cn1nnnc1SCC(=O)[C@H]1CCC[C@H]2[C@@H]3CC[C@@H]4C[C@](C)(O)CC[C@@H]4[C@H]3CC[C@]12C [KH047],0 to 20%,0 to 20%,,,,,,,,
C[C@@]1(O)CC[C@H]2[C@H](CC[C@@H]3[C@@H]2CC[C@]2(C)[C@@H](C(=O)COc4ncnc5cnc(F)cc45)CCC[C@@H]32)C1 [KH048],0 to 20%,0 to 20%,,,,,,,,
C[C@@]1(O)CC[C@H]2[C@H](CC[C@@H]3[C@@H]2CC[C@]2(C)[C@@H](C(=O)COc4nc[nH]n4)CCC[C@@H]32)C1 [KH051],0 to 20%,0 to 20%,,,,,,,,
C[C@@]1(O)CC[C@H]2[C@H](CC[C@@H]3[C@@H]2CC[C@]2(C)[C@@H](C(=O)Cn4ncnn4)CCC[C@@H]32)C1 [KH052],0 to 20%,0 to 20%,,,,,,,,
